Measurements from patent publication US8765741B2, “5,6-dihydro-1H-pyridin-2-one compounds” (Anadys Pharmaceuticals, Inc., priority 2007, dated 2014).

What follows are compounds tested against NS5B polymerase (Hepatitis C virus genotype 1b, UniProt P26663) (assay: biochemical). Conditions: NS5B polymerase inhibition; 20 nM enzyme, 75 min at 28° C.
Procedure: Compounds were tested for HCV polymerase inhibition. Assays were performed in a 96-well streptavidin-coated FlashPlate using 20 nM enzyme, 0.5 μCi of [α-^33P]GTP, 0.6 μM GTP, and 250 nM 5′biotinylated oligo (rG13)/poly rC in 20 mM Tris-HCl, pH 7.5, 5 mM MgCl2, 5 mM dithiothreitol, 0.1 g/L bovine serum albumin, and 100 U/mL RNAse inhibitor. The reaction was stopped by aspiration after 75 min at 28° C. and the plate was washed several times. After washing and drying the plate, incorporated radioactivity was counted using a Microbeta scintillation counter. IC50 values were calculated relative to the uninhibited control and inhibition data were fitted to a 4-parameter IC50 equation.

Chain of NS5B polymerase (P26663 2420-3010): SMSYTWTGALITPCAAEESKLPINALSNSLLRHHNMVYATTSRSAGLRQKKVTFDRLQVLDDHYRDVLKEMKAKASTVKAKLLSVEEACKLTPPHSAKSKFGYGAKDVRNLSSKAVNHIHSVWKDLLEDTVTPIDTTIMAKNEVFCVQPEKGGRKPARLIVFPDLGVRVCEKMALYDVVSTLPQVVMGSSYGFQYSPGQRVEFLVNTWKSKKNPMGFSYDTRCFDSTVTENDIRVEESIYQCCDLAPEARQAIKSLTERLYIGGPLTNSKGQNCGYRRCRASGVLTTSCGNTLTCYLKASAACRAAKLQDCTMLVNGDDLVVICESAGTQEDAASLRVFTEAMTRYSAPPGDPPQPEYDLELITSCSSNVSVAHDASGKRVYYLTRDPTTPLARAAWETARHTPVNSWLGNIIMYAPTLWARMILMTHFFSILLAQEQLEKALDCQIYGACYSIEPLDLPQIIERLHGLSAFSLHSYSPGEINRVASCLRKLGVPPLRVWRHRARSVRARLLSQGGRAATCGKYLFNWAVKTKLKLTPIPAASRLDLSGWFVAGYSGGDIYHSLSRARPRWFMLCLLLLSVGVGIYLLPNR

Structure (SMILES)	IC50 [µM]
CS(=O)(=O)Nc1ccc2c(c1)S(=O)(=O)N=C(C1=C(O)C3C4CCC(C4)C3N(Cc3ccc(F)cc3)C1=O)N2 (racemic) [Example 2, (rac-di-endo)-N-{3-[3-(4-Fluoro-benzyl)-6-hydroxy-4-oxo-3-aza-tricyclo[6.2.1.0^2,7]undec-5-en-5-yl]-1,1-dioxo-1,4-dihydro-1λ^6-benzo[1,2,4]thiadiazin-7-yl}-methanesulfonamide]	< 0.02

Same assay, conditions: NS5B polymerase inhibition; 20 nM enzyme, 75 min at 28° C.; read-out: IC50

IC50 [µM]	Structure (SMILES)
0.1 to 1	O=C1C(C2=NS(=O)(=O)c3cccnc3N2)=C(O)[C@@H]2[C@H]3CC[C@H](C3)[C@@H]2N1Cc1ccc(F)cc1 [Example 63, (1R,2S,7R,8S)-5-(1,1-Dioxo-1,4-dihydro-1λ^6-pyrido[2,3-e][1,2,4]thiadiazin-3-yl)-3-(4-fluoro-benzyl)-6-hydroxy-3-aza-tricyclo[6.2.1.0^2,7]undec-5-en-4-one]
0.1 to 1	O=C1C(C2=NS(=O)(=O)c3ccccc3N2)=C(O)[C@@H]2[C@H]3CC[C@H](C3)[C@@H]2N1Cc1ccc(F)cc1 [Example 28, (1R,2S,7R,8S)-5-(1,1-Dioxo-1,4-dihydro-1λ^6-benzo[1,2,4]thiadiazin-3-yl)-3-(4-fluoro-benzyl)-6-hydroxy-3-aza-tricyclo[6.2.1.0^2,7]undec-5-en-4-one]
0.1 to 1	CS(=O)(=O)Nc1ccc2c(c1)S(=O)(=O)N=C(C1=C(O)C3C4CCC(C4)C3N(Cc3ccc(F)cn3)C1=O)N2 (racemic) [Example 3, (rac-di-endo)-N-{3-[3-(5-Fluoro-pyridin-2-ylmethyl)-6-hydroxy-4-oxo-3-aza-tricyclo[6.2.1.0^2,7]undec-5-en-5-yl]-1,1-dioxo-1,4-dihydro-1λ^6-benzo[1,2,4]thiadiazin-7-yl}-methanesulfonamide]
0.02 to 0.1	CC(C)CCN1C(=O)C(C2=NS(=O)(=O)c3cc(NS(C)(=O)=O)ccc3N2)=C(O)[C@@H]2[C@H]3CC[C@H](C3)[C@@H]21 [Example 22, (1R,2S,7R,8S)-N-{3-[6-Hydroxy-3-(3-methyl-butyl)-4-oxo-3-aza-tricyclo[6.2.1.0^2,7]undec-5-en-5-yl]-1,1-dioxo-1,4-dihydro-1λ^6-benzo[1,2,4]thiadiazin-7-yl}-methanesulfonamide]
0.1 to 1	O=C1C(C2=NS(=O)(=O)c3cc(C4=CCCS4(=O)=O)ccc3N2)=C(O)[C@@H]2[C@H]3CC[C@H](C3)[C@@H]2N1Cc1ccc(F)cc1 [Example 20, (1R,2S,7R,8S)-5-[7-(1,1-Dioxo-4,5-dihydro-1H-1λ^6-thiophen-2-yl)-1,1-dioxo-1,4-dihydro-1λ^6-benzo[1,2,4]thiadiazin-3-yl]-3-(4-fluoro-benzyl)-6-hydroxy-3-aza-tricyclo[6.2.1.0^2,7]undec-5-en-4-one]
< 0.02	CS(=O)(=O)Nc1ccc2c(c1)S(=O)(=O)N=C(C1=C(O)[C@@H]3[C@H]4CC[C@H](C4)[C@@H]3N(Cc3ccccc3)C1=O)N2 [Example 56, (1R,2S,7R,8S)-N-[3-(3-Benzyl-6-hydroxy-4-oxo-3-aza-tricyclo[6.2.1.0^2,7]undec-5-en-5-yl)-1,1-dioxo-1,4-dihydro-1λ^6-benzo[1,2,4]thiadiazin-7-yl]-methanesulfonamide]
< 0.02	Cc1cc(CN2C(=O)C(C3=NS(=O)(=O)c4cc(NS(C)(=O)=O)ccc4N3)=C(O)[C@H]3[C@@H]2[C@@H]2CC[C@H]3O2)ccc1F [Example 11, N-{3-[(1S,2R,7S,8R)-3-(4-Fluoro-3-methyl-benzyl)-6-hydroxy-4-oxo-11-oxa-3-aza-tricyclo[6.2.1.0^2,7]undec-5-en-5-yl]-1,1-dioxo-1,4-dihydro-1λ^6-benzo[1,2,4]thiadiazin-7-yl}-methanesulfonamide]
1 to 100	CN(c1ccc2c(c1)S(=O)(=O)N=C(C1=C(O)C3C4C=CC(C4)C3N(Cc3ccc(F)cc3)C1=O)N2)S(C)(=O)=O (racemic) [Example 39, (rac-di-exo)-N-{3-[3-(4-Fluoro-benzyl)-6-hydroxy-4-oxo-3-aza-tricyclo[6.2.1.0^2,7]undeca-5,9-dien-5-yl]-1,1-dioxo-1,4-dihydro-1λ^6-benzo[1,2,4]thiadiazin-7-yl}-N-methyl-methanesulfonamide]
< 0.02	CS(=O)(=O)Nc1ccc2c(c1)S(=O)(=O)N=C(C1=C(O)[C@@H]3[C@H]4CC[C@H](C4)[C@@H]3N(Cc3ccc(F)c(F)c3)C1=O)N2 [Example 16, N-{3-[(1R,2S,7R,8S)-3-(3,4-Difluoro-benzyl)-6-hydroxy-4-oxo-3-aza-tricyclo[6.2.1.0^2,7]undec-5-en-5-yl]-1,1-dioxo-1,4-dihydro-1λ^6-benzo[1,2,4]thiadiazin-7-yl}-methanesulfonamide]
0.02 to 0.1	CC(C)CCN1C(=O)C(C2=NS(=O)(=O)c3cc(NS(=O)(=O)C4CC4)ccc3N2)=C(O)C2C1[C@@H]1CC[C@H]2C1 (stereo partly drawn) [Example 40, Cyclopropanesulfonic acid{3-(1R,2S,7R,8S)-[6-hydroxy-3-(3-methyl-butyl)-4-oxo-3-aza-tricyclo[6.2.1.0^2,7]undec-5-en-5-yl]-1,1-dioxo-1,4-dihydro-1λ^6-benzo[1,2,4]thiadiazin-7-yl}-amide]
0.1 to 1	CS(=O)(=O)Nc1ccc2c(c1)S(=O)(=O)N=C(C1=C(O)C3C([C@@H]4CC[C@H]3C4)N(C3CCCC3)C1=O)N2 (some centres unmarked) [Example 44]
0.02 to 0.1	CS(=O)(=O)Nc1ccc2c(c1)S(=O)(=O)N=C(C1=C(O)[C@@H]3[C@H]4CC[C@H](C4)[C@@H]3N(CCC3CC3)C1=O)N2 [Example 66, N-{3-[(1R,2S,7R,8S)-3-(2-Cyclopropyl-ethyl)-6-hydroxy-4-oxo-3-aza-tricyclo[6.2.1.0^2,7]undec-5-en-5-yl]-1,1-dioxo-1,4-dihydro-1λ^6-benzo[1,2,4]thiadiazin-7-yl}-methanesulfonamide]
0.02 to 0.1	CC(C)CN1C(=O)C(C2=NS(=O)(=O)c3cc(NS(C)(=O)=O)ccc3N2)=C(O)[C@@H]2[C@H]3CC[C@H](C3)[C@@H]21 [Example 57, (1R,2S,7R,8S)-N-[3-(6-Hydroxy-3-isobutyl-4-oxo-3-aza-tricyclo[6.2.1.0^2,7]undec-5-en-5-yl)-1,1-dioxo-1,4-dihydro-1λ^6-benzo[1,2,4]thiadiazin-7-yl]-methanesulfonamide]
0.02 to 0.1	Cc1ccc(CN2C(=O)C(C3=NS(=O)(=O)c4cc(NS(C)(=O)=O)ccc4N3)=C(O)[C@@H]3[C@H]4CC[C@H](C4)[C@@H]32)cc1F [Example 60, N-{3-[(1R,2S,7R,8S)-3-(3-Fluoro-4-methyl-benzyl)-6-hydroxy-4-oxo-3-aza-tricyclo[6.2.1.0^2,7]undec-5-en-5-yl]-1,1-dioxo-1,4-dihydro-1λ^6-benzo[1,2,4]thiadiazin-7-yl}-methanesulfonamide]
< 0.02	CS(=O)(=O)Nc1ccc2c(c1)S(=O)(=O)N=C(C1=C(O)[C@H]3[C@H]([C@@H]4CC[C@H]3O4)N(Cc3ccc(F)cc3)C1=O)N2 [Example 14, N-{3-[(1S,2R,7S,8R)-3-(4-Fluoro-benzyl)-6-hydroxy-4-oxo-11-oxa-3-aza-tricyclo[6.2.1.0^2,7]undec-5-en-5-yl]-1,1-dioxo-1,4-dihydro-1λ^6-benzo[1,2,4]thiadiazin-7-yl}-methanesulfonamide]
0.1 to 1	Nc1ccc2c(c1)S(=O)(=O)N=C(C1=C(O)[C@@H]3[C@H]4CC[C@H](C4)[C@@H]3N(Cc3ccc(F)cc3)C1=O)N2 [Example 30, (1R,2S,7R,8S)-5-(7-Amino-1,1-dioxo-1,4-dihydro-1λ^6-benzo[1,2,4]thiadiazin-3-yl)-3-(4-fluoro-benzyl)-6-hydroxy-3-aza-tricyclo[6.2.1.0^2,7]undec-5-en-4-one]
